# Data from ChEMBL document CHEMBL4706559, “New indolylarylsulfone non-nucleoside reverse transcriptase inhibitors show low nanomolar inhibition of single and double HIV-1 mutant strains” (Eur J Med Chem, 2020).
# Molecular target: Human immunodeficiency virus type 1 reverse transcriptase (Human immunodeficiency virus 1, UniProt Q72547)
# Assay: Inhibition of RNA-dependent DNA polymerase activity of wild type recombinant HIV-1 His-tagged p66/p51 reverse transcriptase assessed as inhibition of [3H]dTTP incorporation using poly(rA)/oligo(dT) as templates incubated for 15 mins by MicroBeta scintillation counting method
# Conditions: not given
row,Structure (SMILES),IC50 [nM]
1,Cc1cc(C)cc(S(=O)(=O)c2c(C(=O)Nc3ccc(O)cc3)[nH]c3ccc(Cl)cc23)c1,69
2,Cc1cc(C)cc(S(=O)(=O)c2c(C(=O)NCc3ccc(O)cc3)[nH]c3ccc(Cl)cc23)c1,61
3,Cc1cc(C)cc(S(=O)(=O)c2c(C(=O)NCc3ccc(CO)cc3)[nH]c3ccc(Cl)cc23)c1,38

# Tested on: Human immunodeficiency virus 1
# Assay: Antiviral activity against HIV1 harboring RT Y181C mutant infected in human MT4 cells assessed as protection against virus-induced cytopathic effect by MTT assay
# Type: functional, organism-based
# Conditions: Human immunodeficiency virus 1, MT4
row,Structure (SMILES),EC50 [nM]
1,COc1cc(CNC(=O)c2[nH]c3ccc(Cl)cc3c2S(=O)(=O)c2cc(C)cc(C)c2)ccc1O,2
2,Cc1cc(C)cc(S(=O)(=O)c2c(C(=O)NCCc3ccc(O)cc3)[nH]c3ccc(Cl)cc23)c1,85
3,Cc1cc(C)cc(S(=O)(=O)c2c(C(=O)NC(C)C(=O)NCc3ccccc3O)[nH]c3ccc(Cl)cc23)c1 (stereo not given),41
4,Cc1cc(C)cc(S(=O)(=O)c2c(C(=O)Nc3ccc(O)cc3)[nH]c3ccc(Cl)cc23)c1,< 0.7
5,Cc1cc(C)cc(S(=O)(=O)c2c(C(=O)NCc3ccc(O)cc3)[nH]c3ccc(Cl)cc23)c1,< 0.7
6,Cc1cc(C)cc(S(=O)(=O)c2c(C(=O)NCc3ccc(CO)cc3)[nH]c3ccc(Cl)cc23)c1,22

# Molecular target: Human immunodeficiency virus type 1 reverse transcriptase (Human immunodeficiency virus 1, UniProt Q72547, K103N)
# Assay: Inhibition of RNA-dependent DNA polymerase activity of recombinant HIV-1 p66/p51 reverse transcriptase K103N mutant assessed as inhibition of [3H]dTTP incorporation using poly(rA)/oligo(dT) as templates incubated for 15 mins by MicroBeta scintillation counting method
# Conditions: not given
row,Structure (SMILES),IC50 [nM]
1,Cc1cc(C)cc(S(=O)(=O)c2c(C(=O)Nc3ccc(O)cc3)[nH]c3ccc(Cl)cc23)c1,106
2,Cc1cc(C)cc(S(=O)(=O)c2c(C(=O)NCc3ccc(O)cc3)[nH]c3ccc(Cl)cc23)c1,45
3,Cc1cc(C)cc(S(=O)(=O)c2c(C(=O)NCc3ccc(CO)cc3)[nH]c3ccc(Cl)cc23)c1,79

# Tested on: Human immunodeficiency virus 1
# Assay: Resistance index, ratio of EC50 for antiviral activity against HIV1 harboring RT K103N/Y181C double mutant infected in human MT4 cells to EC50 for antiviral activity against HIV1 NL4-3 infected in human MT4 cells
# Type: functional
# Conditions: not given
row,Structure (SMILES),Ratio EC50
1,COc1cc(CNC(=O)c2[nH]c3ccc(Cl)cc3c2S(=O)(=O)c2cc(C)cc(C)c2)ccc1O,1871
2,Cc1cc(C)cc(S(=O)(=O)c2c(C(=O)NCCc3ccc(O)cc3)[nH]c3ccc(Cl)cc23)c1,6152
3,Cc1cc(C)cc(S(=O)(=O)c2c(C(=O)NC(C)C(=O)NCc3ccccc3O)[nH]c3ccc(Cl)cc23)c1 (stereo not given),>8733
4,Cc1cc(C)cc(S(=O)(=O)c2c(C(=O)Nc3ccc(O)cc3)[nH]c3ccc(Cl)cc23)c1,>1381
5,Cc1cc(C)cc(S(=O)(=O)c2c(C(=O)NCc3ccc(O)cc3)[nH]c3ccc(Cl)cc23)c1,>1006
6,Cc1cc(C)cc(S(=O)(=O)c2c(C(=O)NCc3ccc(CO)cc3)[nH]c3ccc(Cl)cc23)c1,>4703

# Molecular target: not listed separately
# Assay: Inhibition of RNA-dependent DNA polymerase activity of recombinant HIV-1 p66/p51 reverse transcriptase Y188L mutant assessed as inhibition of [3H]dTTP incorporation using poly(rA)/oligo(dT) as templates incubated for 15 mins by MicroBeta scintillation counting method
# Parameters: species or system Human immunodeficiency virus 1
# Conditions: not given
row,Structure (SMILES),IC50 [nM]
1,Cc1cc(C)cc(S(=O)(=O)c2c(C(=O)Nc3ccc(O)cc3)[nH]c3ccc(Cl)cc23)c1,81
2,Cc1cc(C)cc(S(=O)(=O)c2c(C(=O)NCc3ccc(O)cc3)[nH]c3ccc(Cl)cc23)c1,50
3,Cc1cc(C)cc(S(=O)(=O)c2c(C(=O)NCc3ccc(CO)cc3)[nH]c3ccc(Cl)cc23)c1,178

# Tested on: Human immunodeficiency virus 1
# Assay: Antiviral activity against HIV1 harboring RT Y188L mutant infected in human MT4 cells assessed as protection against virus-induced cytopathic effect by MTT assay
# Type: functional, organism-based
# Conditions: Human immunodeficiency virus 1, MT4
row,Structure (SMILES),EC50 [nM]
1,COc1cc(CNC(=O)c2[nH]c3ccc(Cl)cc3c2S(=O)(=O)c2cc(C)cc(C)c2)ccc1O,220
2,Cc1cc(C)cc(S(=O)(=O)c2c(C(=O)NCCc3ccc(O)cc3)[nH]c3ccc(Cl)cc23)c1,> 27400
3,Cc1cc(C)cc(S(=O)(=O)c2c(C(=O)NC(C)C(=O)NCc3ccccc3O)[nH]c3ccc(Cl)cc23)c1 (stereo not given),6560
4,Cc1cc(C)cc(S(=O)(=O)c2c(C(=O)Nc3ccc(O)cc3)[nH]c3ccc(Cl)cc23)c1,989
5,Cc1cc(C)cc(S(=O)(=O)c2c(C(=O)NCc3ccc(O)cc3)[nH]c3ccc(Cl)cc23)c1,661

# Tested on: Human immunodeficiency virus 1
# Assay: Antiviral activity against HIV-1 NL4-3 infected in human MT-4 cells assessed as virus induced cytopathic effect by MTT assay
# Type: functional, organism-based
# Conditions: Human immunodeficiency virus 1, NL4-3, MT4
row,Structure (SMILES),EC50 [nM]
1,COc1cc(CNC(=O)c2[nH]c3ccc(Cl)cc3c2S(=O)(=O)c2cc(C)cc(C)c2)ccc1O,< 0.6
2,Cc1cc(C)cc(S(=O)(=O)c2c(C(=O)NCCc3ccc(O)cc3)[nH]c3ccc(Cl)cc23)c1,< 0.7
3,Cc1cc(C)cc(S(=O)(=O)c2c(C(=O)NC(C)C(=O)NCc3ccccc3O)[nH]c3ccc(Cl)cc23)c1 (stereo not given),< 0.6
4,Cc1cc(C)cc(S(=O)(=O)c2c(C(=O)Nc3ccc(O)cc3)[nH]c3ccc(Cl)cc23)c1,< 0.7
5,Cc1cc(C)cc(S(=O)(=O)c2c(C(=O)NCc3ccc(O)cc3)[nH]c3ccc(Cl)cc23)c1,< 0.7
6,Cc1cc(C)cc(S(=O)(=O)c2c(C(=O)NCc3ccc(CO)cc3)[nH]c3ccc(Cl)cc23)c1,< 0.7

# Tested on: Human immunodeficiency virus 1
# Assay: Resistance index, ratio of EC50 for antiviral activity against HIV1 harboring RT Y181C mutant infected in human MT4 cells to EC50 for antiviral activity against HIV1 NL4-3 infected in human MT4 cells
# Type: functional
# Conditions: not given
row,Structure (SMILES),Ratio EC50
1,COc1cc(CNC(=O)c2[nH]c3ccc(Cl)cc3c2S(=O)(=O)c2cc(C)cc(C)c2)ccc1O,3.3
2,Cc1cc(C)cc(S(=O)(=O)c2c(C(=O)NCCc3ccc(O)cc3)[nH]c3ccc(Cl)cc23)c1,>141
3,Cc1cc(C)cc(S(=O)(=O)c2c(C(=O)NC(C)C(=O)NCc3ccccc3O)[nH]c3ccc(Cl)cc23)c1 (stereo not given),>68
4,Cc1cc(C)cc(S(=O)(=O)c2c(C(=O)NCc3ccc(CO)cc3)[nH]c3ccc(Cl)cc23)c1,>31

# Molecular target: not listed separately
# Assay: Inhibition of RNA-dependent DNA polymerase activity of recombinant HIV-1 p66/p51 reverse transcriptase K103N/Y181C mutant assessed as inhibition of [3H]dTTP incorporation using poly(rA)/oligo(dT) as templates incubated for 15 mins by MicroBeta scintillation counting method
# Parameters: species or system Human immunodeficiency virus 1
# Conditions: not given
row,Structure (SMILES),IC50 [nM]
1,Cc1cc(C)cc(S(=O)(=O)c2c(C(=O)Nc3ccc(O)cc3)[nH]c3ccc(Cl)cc23)c1,375
2,Cc1cc(C)cc(S(=O)(=O)c2c(C(=O)NCc3ccc(O)cc3)[nH]c3ccc(Cl)cc23)c1,628
3,Cc1cc(C)cc(S(=O)(=O)c2c(C(=O)NCc3ccc(CO)cc3)[nH]c3ccc(Cl)cc23)c1,188

# Tested on: Human immunodeficiency virus 1
# Assay: Resistance index, ratio of EC50 for antiviral activity against HIV1 harboring RT Y188L mutant infected in human MT4 cells to EC50 for antiviral activity against HIV1 NL4-3 infected in human MT4 cells
# Type: functional
# Conditions: not given
row,Structure (SMILES),Ratio EC50
1,COc1cc(CNC(=O)c2[nH]c3ccc(Cl)cc3c2S(=O)(=O)c2cc(C)cc(C)c2)ccc1O,367
2,Cc1cc(C)cc(S(=O)(=O)c2c(C(=O)NCCc3ccc(O)cc3)[nH]c3ccc(Cl)cc23)c1,>39103
3,Cc1cc(C)cc(S(=O)(=O)c2c(C(=O)NC(C)C(=O)NCc3ccccc3O)[nH]c3ccc(Cl)cc23)c1 (stereo not given),10925
4,Cc1cc(C)cc(S(=O)(=O)c2c(C(=O)Nc3ccc(O)cc3)[nH]c3ccc(Cl)cc23)c1,>1413
5,Cc1cc(C)cc(S(=O)(=O)c2c(C(=O)NCc3ccc(O)cc3)[nH]c3ccc(Cl)cc23)c1,>944

# Tested on: Human immunodeficiency virus 1
# Assay: Resistance index, ratio of EC50 for antiviral activity against HIV1 harboring RT K103N mutant infected in human MT4 cells to EC50 for antiviral activity against HIV1 NL4-3 infected in human MT4 cells
# Type: functional
# Conditions: not given
row,Structure (SMILES),Ratio EC50
1,Cc1cc(C)cc(S(=O)(=O)c2c(C(=O)NCCc3ccc(O)cc3)[nH]c3ccc(Cl)cc23)c1,>276
2,Cc1cc(C)cc(S(=O)(=O)c2c(C(=O)NC(C)C(=O)NCc3ccccc3O)[nH]c3ccc(Cl)cc23)c1 (stereo not given),>62

# Tested on: Human immunodeficiency virus 1
# Assay: Antiviral activity against HIV1 harboring RT K103N mutant infected in human MT4 cells assessed as protection against virus-induced cytopathic effect by MTT assay
# Type: functional, organism-based
# Conditions: Human immunodeficiency virus 1, MT4
row,Structure (SMILES),EC50 [nM]
1,COc1cc(CNC(=O)c2[nH]c3ccc(Cl)cc3c2S(=O)(=O)c2cc(C)cc(C)c2)ccc1O,< 0.6
2,Cc1cc(C)cc(S(=O)(=O)c2c(C(=O)NCCc3ccc(O)cc3)[nH]c3ccc(Cl)cc23)c1,166
3,Cc1cc(C)cc(S(=O)(=O)c2c(C(=O)NC(C)C(=O)NCc3ccccc3O)[nH]c3ccc(Cl)cc23)c1 (stereo not given),37
4,Cc1cc(C)cc(S(=O)(=O)c2c(C(=O)Nc3ccc(O)cc3)[nH]c3ccc(Cl)cc23)c1,< 0.7
5,Cc1cc(C)cc(S(=O)(=O)c2c(C(=O)NCc3ccc(O)cc3)[nH]c3ccc(Cl)cc23)c1,< 0.7
6,Cc1cc(C)cc(S(=O)(=O)c2c(C(=O)NCc3ccc(CO)cc3)[nH]c3ccc(Cl)cc23)c1,< 0.7

# Tested on: not listed separately
# Assay: Cytotoxicity against human MT-4 cells assessed as reduction in cell viability by MTT assay
# Type: cell-based, MT4
# Conditions: not given
row,Structure (SMILES),CC50 [nM]
1,COc1cc(CNC(=O)c2[nH]c3ccc(Cl)cc3c2S(=O)(=O)c2cc(C)cc(C)c2)ccc1O,28700
2,Cc1cc(C)cc(S(=O)(=O)c2c(C(=O)NCCc3ccc(O)cc3)[nH]c3ccc(Cl)cc23)c1,27400
3,Cc1cc(C)cc(S(=O)(=O)c2c(C(=O)NC(C)C(=O)NCc3ccccc3O)[nH]c3ccc(Cl)cc23)c1 (stereo not given),14400
4,Cc1cc(C)cc(S(=O)(=O)c2c(C(=O)Nc3ccc(O)cc3)[nH]c3ccc(Cl)cc23)c1,18100
5,Cc1cc(C)cc(S(=O)(=O)c2c(C(=O)NCc3ccc(O)cc3)[nH]c3ccc(Cl)cc23)c1,6250
6,Cc1cc(C)cc(S(=O)(=O)c2c(C(=O)NCc3ccc(CO)cc3)[nH]c3ccc(Cl)cc23)c1,31100

# Tested on: Human immunodeficiency virus 1
# Assay: Antiviral activity against HIV1 harboring RT K103N/Y181C double mutant infected in human MT4 cells assessed as protection against virus-induced cytopathic effect by MTT assay
# Type: functional, organism-based
# Conditions: Human immunodeficiency virus 1, MT4
row,Structure (SMILES),EC50 [nM]
1,COc1cc(CNC(=O)c2[nH]c3ccc(Cl)cc3c2S(=O)(=O)c2cc(C)cc(C)c2)ccc1O,1120
2,Cc1cc(C)cc(S(=O)(=O)c2c(C(=O)NCCc3ccc(O)cc3)[nH]c3ccc(Cl)cc23)c1,4310
3,Cc1cc(C)cc(S(=O)(=O)c2c(C(=O)NC(C)C(=O)NCc3ccccc3O)[nH]c3ccc(Cl)cc23)c1 (stereo not given),5240
4,Cc1cc(C)cc(S(=O)(=O)c2c(C(=O)Nc3ccc(O)cc3)[nH]c3ccc(Cl)cc23)c1,967
5,Cc1cc(C)cc(S(=O)(=O)c2c(C(=O)NCc3ccc(O)cc3)[nH]c3ccc(Cl)cc23)c1,704
6,Cc1cc(C)cc(S(=O)(=O)c2c(C(=O)NCc3ccc(CO)cc3)[nH]c3ccc(Cl)cc23)c1,3290

# Tested on: not listed separately
# Assay: Selectivity ratio of CC50 for human MT4 cells to EC50 for antiviral activity against HIV-1 NL4-3 infected in human MT4 cells
# Type: toxicity, cell-based
# Conditions: read-out: Ratio CC50/EC50
row,Structure (SMILES),selectivity ratio
1,COc1cc(CNC(=O)c2[nH]c3ccc(Cl)cc3c2S(=O)(=O)c2cc(C)cc(C)c2)ccc1O,> 47800
2,Cc1cc(C)cc(S(=O)(=O)c2c(C(=O)NCCc3ccc(O)cc3)[nH]c3ccc(Cl)cc23)c1,> 39100
3,Cc1cc(C)cc(S(=O)(=O)c2c(C(=O)NC(C)C(=O)NCc3ccccc3O)[nH]c3ccc(Cl)cc23)c1 (stereo not given),> 23900
4,Cc1cc(C)cc(S(=O)(=O)c2c(C(=O)Nc3ccc(O)cc3)[nH]c3ccc(Cl)cc23)c1,> 25800
5,Cc1cc(C)cc(S(=O)(=O)c2c(C(=O)NCc3ccc(O)cc3)[nH]c3ccc(Cl)cc23)c1,> 8930
6,Cc1cc(C)cc(S(=O)(=O)c2c(C(=O)NCc3ccc(CO)cc3)[nH]c3ccc(Cl)cc23)c1,> 44400
